Source: patent US6737383B1, “Herbicidal oxadiazolidines” (priority 1999, dated 2004)

Assays:
cocklebur = assay: Test B pre/postemergence cocklebur; format: in vivo, Xanthium strumarium
In short: (§1)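 Herbicidal effect was estimated by eye on a ten-point control scale after plants spent twelve to sixteen days in a greenhouse following soil or foliar treatment. Foliar sprays targeted plants at one to four leaves; all doses were formulated in a non-phytotoxic solvent with surfactant.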

surinam grass = assay: Test B pre/postemergence surinam grass; format: in vivo, Brachiaria decumbens; conditions: Postemergence
In short: as §1

velvetleaf = assay: Test B pre/postemergence velvetleaf; format: in vivo, Abutilon theophrasti
In short: as §1

morningglory = assay: Test B pre/postemergence morningglory; format: in vivo, Ipomoea hederacea
In short: as §1

crabgrass = assay: Test B pre/postemergence crabgrass; format: in vivo, Digitaria sanguinalis
In short: as §1

giant foxtail = assay: Test B pre/postemergence giant foxtail; format: in vivo, Setaria faberii
In short: as §1

wild oat = assay: Test B pre/postemergence wild oat; format: in vivo, Avena fatua
In short: as §1

bedstraw = assay: Test B pre/postemergence bedstraw; format: in vivo, Galium aparine
In short: as §1

corn = assay: Test B pre/postemergence corn; format: in vivo, Zea mays
In short: as §1

purple nutsedge = assay: Test B pre/postemergence purple nutsedge; format: in vivo, Cyperus rotundus
In short: as §1

rape = assay: Test B pre/postemergence rape; format: in vivo, Brassica napus; conditions: Preemergence
In short: as §1

blackgrass = assay: Test B pre/postemergence blackgrass; format: in vivo, Alopecurus myosuroides
In short: as §1

pigweed = assay: Test B pre/postemergence pigweed; format: in vivo, Amaranthus retroflexus
In short: as §1

wheat = assay: Test B pre/postemergence wheat; format: in vivo, Triticum aestivum
In short: as §1

soybean = assay: Test B pre/postemergence soybean; format: in vivo, Glycine max
In short: as §1

sugar beet = assay: Test B pre/postemergence sugar beet; format: in vivo, Beta vulgaris
In short: as §1

[1] = Postemergence, Rate 62 g/ha, scale 0 to 10, 0 is no effect, 10 is complete control
[2] = Postemergence, Rate 125 g/ha, scale of 0 to 10 where 0 is no effect and 10 is complete control
[3] = Postemergence, Rate 500 g/ha, scale 0 (no effect) to 10 (complete control)
[4] = Preemergence, Rate 250 g/ha, scale 0 (no effect) to 10 (complete control)
[5] = Rate 62 g/ha, Preemergence, scale 0 to 10
[6] = Rate 125 g/ha, Preemergence, scale 0 to 10 (0 no effect, 10 complete control)
[7] = Rate 250 g/ha, Postemergence, scale 0 to 10, 0 is no effect, 10 is complete control
[8] = Rate 500 g/ha, Preemergence, scale 0 to 10 (0 no effect, 10 complete control)

C#CCCn1c(=O)on(C(=O)N(c2ccc(F)cc2)C(C)C)c1=O [Compound 767]
Plant response rating, Cocklebur (cocklebur; [1]): 2
Cocklebur plant response rating (cocklebur; [2]): 2
Cocklebur plant response rating (cocklebur; [3]): 2
Cocklebur plant response rating (cocklebur; [4]): 0
Cocklebur plant response rating (cocklebur; [5]): 0
Cocklebur plant response rating (cocklebur; [6]): 0
Cocklebur plant response rating (cocklebur; [7]): 2
Cocklebur plant response rating (cocklebur; [8]): 0
Plant response rating, B. signalgrass (surinam grass; Rate 62 g/ha, scale 0 to 10, 0 is no effect, 10 is complete control): 2
B. signalgrass plant response rating (surinam grass; Rate 125 g/ha, scale of 0 to 10 where 0 is no effect and 10 is complete control): 2
B. signalgrass plant response rating (surinam grass; Rate 250 g/ha, scale 0 to 10, 0 is no effect, 10 is complete control): 6
B. signalgrass plant response rating (surinam grass; Rate 500 g/ha, scale 0 to 10, 0 is no effect, 10 is complete control): 7
Plant response rating, Velvetleaf (velvetleaf; [1]): 2
Velvetleaf plant response rating (velvetleaf; [3]): 3
Velvetleaf plant response rating (velvetleaf; [5]): 0
Velvetleaf plant response rating (velvetleaf; [6]): 0
Velvetleaf plant response rating (velvetleaf; [7]): 2
Velvetleaf plant response rating (velvetleaf; [8]): 2
Plant response rating, Morningglory (morningglory; [1]): 5
Morningglory plant response rating (morningglory; [2]): 5
Morningglory plant response rating (morningglory; [3]): 7
Morningglory plant response rating (morningglory; [5]): 0
Morningglory plant response rating (morningglory; [6]): 0
Morningglory plant response rating (morningglory; [7]): 5
Morningglory plant response rating (morningglory; [8]): 0
Plant response rating, Crabgrass (crabgrass; [1]): 8
Crabgrass plant response rating (crabgrass; [2]): 8
Crabgrass plant response rating (crabgrass; [3]): 9
Crabgrass plant response rating (crabgrass; [4]): 10
Crabgrass plant response rating (crabgrass; [5]): 10
Crabgrass plant response rating (crabgrass; [6]): 10
Crabgrass plant response rating (crabgrass; [7]): 9
Crabgrass plant response rating (crabgrass; [8]): 10
Plant response rating, Giant foxtail (giant foxtail; [1]): 8
Giant foxtail plant response rating (giant foxtail; [2]): 8
Giant foxtail plant response rating (giant foxtail; [3]): 9
Giant foxtail plant response rating (giant foxtail; [4]): 10
Giant foxtail plant response rating (giant foxtail; [5]): 10
Giant foxtail plant response rating (giant foxtail; [6]): 10
Giant foxtail plant response rating (giant foxtail; [7]): 9
Giant foxtail plant response rating (giant foxtail; [8]): 10
Plant response rating, Wild oats (wild oat; [1]): 0
Wild oats plant response rating (wild oat; [3]): 3
Wild oats plant response rating (wild oat; [5]): 9
Wild oats plant response rating (wild oat; [7]): 0
Wild oats plant response rating (wild oat; [8]): 9
Plant response rating, Bedstraw (bedstraw; [1]): 7
Bedstraw plant response rating (bedstraw; [2]): 7
Bedstraw plant response rating (bedstraw; [3]): 9
Bedstraw plant response rating (bedstraw; [6]): 0
Bedstraw plant response rating (bedstraw; [7]): 7
Bedstraw plant response rating (bedstraw; [8]): 8
Plant response rating, Corn (corn; [1]): 0
Corn plant response rating (corn; [2]): 0
Corn plant response rating (corn; [3]): 2
Corn plant response rating (corn; [4]): 0
Corn plant response rating (corn; [5]): 0
Corn plant response rating (corn; [6]): 0
Corn plant response rating (corn; [7]): 0
Corn plant response rating (corn; [8]): 5
Plant response rating, Nutsedge (purple nutsedge; [1]): 0
Nutsedge plant response rating (purple nutsedge; [2]): 0
Nutsedge plant response rating (purple nutsedge; [3]): 7
Nutsedge plant response rating (purple nutsedge; [5]): 0
Nutsedge plant response rating (purple nutsedge; [6]): 0
Nutsedge plant response rating (purple nutsedge; [7]): 0
Nutsedge plant response rating (purple nutsedge; [8]): 0
Rape plant response rating (rape; Rate 62 g/ha, scale 0 to 10): 4
Rape plant response rating (rape; Rate 125 g/ha, scale 0 to 10 (0 no effect, 10 complete control)): 6
Rape plant response rating (rape; Rate 500 g/ha, scale 0 to 10 (0 no effect, 10 complete control)): 10
Plant response rating, Blackgrass (blackgrass; [1]): 9
Blackgrass plant response rating (blackgrass; [2]): 9
Blackgrass plant response rating (blackgrass; [3]): 9
Blackgrass plant response rating (blackgrass; [4]): 10
Blackgrass plant response rating (blackgrass; [5]): 10
Blackgrass plant response rating (blackgrass; [6]): 10
Blackgrass plant response rating (blackgrass; [7]): 9
Blackgrass plant response rating (blackgrass; [8]): 10
Plant response rating, Redroot pigweed (pigweed; [1]): 6
Redroot pigweed plant response rating (pigweed; [2]): 9
Redroot pigweed plant response rating (pigweed; [3]): 9
Redroot pigweed plant response rating (pigweed; [5]): 10
Redroot pigweed plant response rating (pigweed; [6]): 10
Redroot pigweed plant response rating (pigweed; [7]): 9
Redroot pigweed plant response rating (pigweed; [8]): 10
Plant response rating, Wheat (wheat; [1]): 0
Wheat plant response rating (wheat; [3]): 2
Wheat plant response rating (wheat; [5]): 0
Wheat plant response rating (wheat; [6]): 5
Wheat plant response rating (wheat; [7]): 2
Wheat plant response rating (wheat; [8]): 5
Plant response rating, Soybean (soybean; [1]): 1
Soybean plant response rating (soybean; [3]): 7
Soybean plant response rating (soybean; [5]): 0
Soybean plant response rating (soybean; [6]): 0
Soybean plant response rating (soybean; [7]): 4
Soybean plant response rating (soybean; [8]): 2
Plant response rating, Sugarbeets (sugar beet; [1]): 3
Sugarbeets plant response rating (sugar beet; [3]): 7
Sugarbeets plant response rating (sugar beet; [5]): 2
Sugarbeets plant response rating (sugar beet; [6]): 6
Sugarbeets plant response rating (sugar beet; [7]): 5
Sugarbeets plant response rating (sugar beet; [8]): 9
